Measurements published in US20260008793A1, “IONIZABLE CATIONIC LIPIDS INCORPORATING SILICON” (ALDEXCHEM KFT., priority 2022, published 2026).

Columns and labels:
[1] = LNP size, PDI and zeta potential by Dynamic Light Scattering (Method A); format: physicochemical; details: LNP formulated by Method A; for Zeta potential (mV): 1xPBS pH 7.4; for PDI / Size (nm): DLS; for Size (nm): Luciferase-mRNA loaded
Procedure, shortened: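 LNPs formulated by microfluidic mixing of mRNA in 10 mM citrate pH 4.0 with ethanolic lipid mix (ionizable lipid added to master mix) at 3:1 aqueous:lipid ratio, then dialysed (100 kDa MWCO). Size, PDI and zeta potential measured by dynamic light scattering.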

[2] = physchem; format: physicochemical
Description: The synthesized lipids were tested in term of in vitro transfection efficacy and toxicity on HeLa cells. In order to perform the mentioned biological tests, appropriate LNPs had to be formulated from the synthesized lipids. The formulation technique was different in Method A and B. The particle size, PDI and zeta potential of resulting LNPs were determined by means of Dynamic Light Scattering technique (DLS). Prior to biological testing the encapsulation efficiency (EE) of the loaded LNPs was determined by using RiboGreen RNA assay. In case of Method A Luciferase-mRNA while in case of Method B GFP-mRNA was transfected into the cells. In parallel with the transfection experiments, toxicity of the investigated LNPs was determined, in case of Method A resazurin assay while in case of Method B MTT assay was used. In the case of some lipids, the apparent pKa in LNPs was determined by using TNS titration based on the method described: Angew Chem Int Ed Engl. 2012, 51 (34), 8529-8533, doi: 10.1002/anie.201203263).

[3] = tested on: HeLa cells; test: Transfection efficiency with Luciferase-mRNA, Nano-Glo assay (Method A); format: cell-based; details: 100 ng Luciferase (SecNLuc) mRNA, 24 h, luminescence
Procedure, shortened: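 LNPs carrying secreted NanoLuc mRNA (100, 50 or 10 ng/well, in Opti-MEM) added to HeLa cells at ~80% confluence and incubated 24 h. Medium luciferase activity measured by Nano-Glo luminescence about 3 min after reagent addition; toxicity tested in parallel by resazurin.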

| SMILES | Zeta potential (mV) [1] [mV] | PDI [1] | Size (nm) [1] [nm] | pKa [2] | Transfection* (Method A = 100 ng mRNA) [3] |
| --- | --- | --- | --- | --- | --- |
| CCCCCCCCCCSC(CCCC)C(=O)OCCCCCCN(CCCCO)CCCCCCOC(CCCCCCC)O[Si](C)(C)CCCCCCCC (centres unmarked) [Example 167, 15-heptyl-7-(4-hydroxybutyl)-17,17-dimethyl-14,16-dioxa-7-aza-17-silapentacosyl 2-(decylthio)hexanoate] | −13.69 | 0.04 | 202.9 | 6.42 | 3110369 |
| CCCCCCCCCCSC(CCCC)C(=O)OCCCCCCN(CCCCO)CCCCCCO[Si](C)(C)OC(CCCCCCC)OCCCCCCCC (centres unmarked) [Example 176, 17-heptyl-7-(4-hydroxybutyl)-15,15-dimethyl-14,16,18-trioxa-7-aza-15-silahexacosyl 2-(decylthio)hexanoate] | −15.0 | 0.18 | 175.00 | 6.48 | 12359273 |
| CCCCCCCCCCCOC(=O)CCCCCN(CCO)CCCCCCCCCC(OCCCCCCCC)O[Si](C)(C)CCCCCC (centres unmarked) [Example 210, undecyl 6-((10-((hexyldimethylsilyl)oxy)-10-(octyloxy)decyl)(2-hydroxyethyl)amino)hexanoate] | −18.75 | 0.097 | 181.2 | 6.4 | 1936082 |
| CCCCCCCCOC(CCCCCCC)O[Si](C)(C)OCCCCCCN(CCCCO)CCCCCCOC(=O)C(CCCCCCCC)SCCCCC (centres unmarked) [Example 188, 17-heptyl-7-(4-hydroxybutyl)-15,15-dimethyl-14,16,18-trioxa-7-aza-15-silahexacosyl 2-(pentylthio)decanoate] | −18.1 | 0.08 | 160.0 | 6.34 | 11210992 |
